# Source: patent publication US8247002B2, “Antioxidant material, anti-deterioration agent and food or beverage” (Pokka Corporation, priority 2004, dated 2012)
# Columns and labels:
# Assay type in all cases: biochemical
# [1] = Inhibitory effects on generation of peroxide lipid, methyl linoleate as substrate; settings: 100 μl of 500 ppm solution, 89 mg methyl linoleate, 40° C. 18 hours in the dark
# Method: Each sample shown in Table 1 described above was examined for inhibitory effects on the generation of peroxide lipid, with methyl linoleate as a substrate. Namely, 100 μl of each aqueous solution used in the paragraph (Measurement of radical-scavenging activity) and 89 mg (100 μl) of methyl linoleate were added to a small test tube of 14 mm in inner diameter and well mixed. At the same time, 100 μl of only the solvent for the aqueous solution was added instead of the aqueous solution to prepare a control. The solvents in these mixture solutions were completely removed in a vacuum desiccator using a vacuum pump. The resulting solutions were left in the dark at 40° C. for 18 hours. Next, 5 ml of 0.08% BHT (2,6-di-t-butyl-4-methylphenol)/hexane solution was added thereto. The amount of peroxide generated from methyl linoleate was measured using HPLC Analysis System 2 shown below under HPLC Condition 4. In a method of measuring and evaluating antioxidative activity, the total of HPLC peak area of peroxide lipids (13-hydroperoxide and 9-hydroperoxide) generated from methyl linoleate in the control test section was determined first. This determined value was regarded as 100%. The total HPLC peak area of the peroxide lipids in the test section supplemented with each sample was determined. This determined value was indicated by percentage (%) with respect to the total of HPLC peak area of the control to thereby determine a rate of inhibition against the oxidation of methyl linoleate.
# Pump: Shimadzu LC-10AD, System Controller: Shimadzu SCL-10A, Autoinjector: Shimadzu SIL-10A, Detector: Shimadzu SPD-10A (UV spectrophotometric detector), Column Oven: Shimadzu CTO-10A
# Column: Develosil ST 60-5 (4.6 i.d.×250 mm), Eluent: n-hexane/1,4-dioxane/isopropylalcohol=98/1/1 (v/v/v), Flow Rate: 1 ml/min, Detection Wavelength: 235 nm
# [2] = Measurement of DPPH radical-scavenging activity; settings: 500 ppm solution (with vitamin C: each 500 ppm), 100 μl aliquot, 20 minutes room temperature in the dark
# Method: Each sample shown in Table 1 described below was examined for DPPH (1,1-diphenyl-2-picrylhydrazyl) radical-scavenging activity. Namely, the lemon glycoside of Comparative Example 1, the eriocitrin of Comparative Example 2, the enzyme-treated aglycon of Test Example 1, or eriodictyol, neoeriocitrin, vitamin C, or α-tocopherol purchased from Funakoshi was dissolved at its concentration of 500 ppm in a solvent to produce an aqueous solution. Then, 100 μl aliquot of the aqueous solution was supplemented with 1 ml of 0.1 M Tris buffer (pH 7.4). The solvent used for α-tocopherol was methanol. Alternatively, each sample described above and vitamin C were dissolved at each concentration of 500 ppm in a solvent to produce an aqueous solution whose 100 μl aliquot was then supplemented with 1 ml of 0.1 M Tris buffer. Subsequently, 2 ml of a DPPH solution (solution obtained by dissolving DPPH at its concentration of 500 μM in ethanol) was added to the solutions and well mixed. The resulting solutions were left at room temperature for 20 minutes in the dark to undergo reaction. The amount of DPPH in each reaction solution (10 μl) was quantified by measurement using HPLC Analysis System 2 described below under HPLC Condition 3. In a method of evaluating radical-scavenging activity, the amount of DPPH remaining in the sample (glycoside and aglycon)-free test section (control) was regarded in advance as 100%. Additionally, the amount of DPPH remaining in the reaction solution supplemented with each sample was measured and indicated by percentage (%) with respect to the amount of DPPH in the control section. Because the radical-scavenging activity of the section supplemented with eriodictyol and vitamin C was almost 100%, the test was conducted again with the amount of the sample reduced to half. Namely, eriodictyol and vitamin C were dissolved at each concentration of 500 ppm in a solvent to produce an aqueous solution whose 50 μl aliquot was then supplemented with 1 ml of 0.1 M Tris buffer. The radical-scavenging activity of the resulting solution was measured as described above. The obtained numeric value was doubled to thereby correct the data. The result is shown in Table 1. <HPLC Analysis System 2> Pump: Shimadzu LC-10AD, System Controller: Shimadzu SCL-10A, Autoinjector: Shimadzu SIL-10A, Detector: Shimadzu SPD-10A (UV spectrophotometric detector), Column Oven: Shimadzu CTO-10A <HPLC Condition 3> Column: TSK-GEL octyl-80Ts (4.6 i.d.×150 mm), Eluent: methanol/water=30/70 (v/v), Flow Rate: 1 ml/min, Detection Wavelength: 517 nm
# [3] = Measurement of rate of elimination of active oxygen (xanthine oxidase / xanthine / nitro blue tetrazolium); settings: as printed for α-tocopherol in the active oxygen test
# Method: Xanthine oxidase (0.5 ml (5.6 units)) was mixed with 0.3 ml of 1 mM xanthine (manufactured by Wako Pure Chemical Industries), 0.3 ml of 0.25 mM nitro blue tetrazolium (manufactured by Wako Pure Chemical Industries), and 2.3 ml of 0.05 M sodium carbonate buffer (pH 10.2). The xanthine oxidase used was a reagent (manufactured by Wako Pure Chemical Industries) diluted at 100 fold with 0.05 M sodium carbonate buffer. This mixture was supplemented with 0.1 ml (concentration: 1000 ppm) of the lemon glycoside of Comparative Example 1 or the enzyme-treated aglycon of Test Example 1 and incubated. Because blue formazan was produced with a lapse of incubation time, absorbance at λ=560 nm was measured using a spectrophotometer (HITACHI spectrophotometer U2000) after 3 minutes of incubation. A test section without addition of the sample (glycoside and aglycon) was used as control. As a blank test, a sodium carbonate buffer was added instead of the xanthine oxidase to perform the same procedures. A value obtained by subtracting the absorbance of the blank test from the absorbance of the solution supplemented with each sample was divided by the absorbance of the control to thereby determine a rate of elimination of active oxygen (%).
# [4] = Inhibitory effect on oxidation of biomembrane using liposome (SUV, AAPH, TBA); settings: 500 ppm sample in phosphate buffer pH 7.4, AAPH, 535 nm
# Method: A single compartment liposome (SUV: Small Unilamellar Vesicle) was used as a biomembrane model to evaluate antioxidative power. For preparing SUV, at first, 100 mg of yolk lecithin was supplemented with 1 ml of chloroform and completely dissolved, followed by the complete removal of the chloroform in a short-neck flask. The obtained lipid film was swollen by the addition of 10 ml of 10 mM phosphate buffer (pH 7.4) containing 500 ppm of the lemon glycoside of Comparative Example 1, the eriocitrin of Comparative Example 2, the enzyme-treated aglycon of Test Example 1, or eriodictyol (manufactured by Funakoshi). The resulting mixture was well shaken and completely dispersed with an ultrasonic washing machine. The lipid film swollen by the addition of 10 ml of only the phosphate buffer was tested as a control in the same way. Next, the obtained multilayer liposome solution was bubbled with nitrogen gas for 5 minutes and then sonicated at 180 W for 20 minutes in a strong ultrasonic generator to prepare a small unilamellar vesicle (SUV).
# The peroxidation of the SUV thus prepared was forcedly promoted by the addition of AAPH ([…]), a radical initiator, to the SUV. As a result, a peroxide as a primary product is generated in the liposome. Subsequently, as a secondary product such as malondialdehyde is generated during the course of autoxidation. A thiobarbituric acid (TBA) reagent is added thereto to generate a red substance (TBA-positive substance), a reaction product of aldehydes. The degree of coloration thereof was measured with a spectrophotometer at λ=535 nm and used to determine the rate of oxidation of the liposome membrane (%).
Structure (SMILES),Rate of inhibition against oxidation of methyl linoleate [1],DPPH radical-scavenging activity [2],rate of oxidation [3],rate of oxidation of the liposome membrane [4]
"O=C1O[C@H]([C@@H](O)CO)C(O)=C1O [Vitamin C, ascorbic acid]",8.32%,14.00%,,
Cc1c(C)c2c(c(C)c1O)CC[C@@](C)(CCC[C@H](C)CCC[C@H](C)CCCC(C)C)O2 [α-tocopherol],16.97%,44.82%,238.2%,76.87%
"C[C@@H]1O[C@@H](O[C@H]2[C@H](Oc3cc(O)c4c(c3)O[C@H](c3ccc(O)c(O)c3)CC4=O)O[C@H](CO)[C@@H](O)[C@@H]2O)[C@H](O)[C@H](O)[C@H]1O [Neoeriocitrin, neoeriocitrin]",9.24%,30.70%,,
"O=C1C[C@@H](c2ccc(O)c(O)c2)Oc2cc(O)cc(O)c21 [Eriodictyol, eriodictyol]",20.99%,75.70%,,6.80%
"C[C@@H]1O[C@@H](OC[C@H]2O[C@@H](Oc3cc(O)c4c(c3)O[C@H](c3ccc(O)c(O)c3)CC4=O)[C@H](O)[C@@H](O)[C@@H]2O)[C@H](O)[C@H](O)[C@H]1O [Eriocitrin, eriocitrin]",8.00%,28.64%,,9.52%
